Patent US20240343733A1, “COMPOUNDS FOR TARGETING DEGRADATION OF IRAK4 PROTEINS” (BIOGEN MA INC., priority 2021, published 2024)

Each compound was assayed against T1, IRAK4 (Homo sapiens, UniProt Q9NWZ3) (assay: IRAK4 Degradation Assay, HiBiT Method). Conditions: 293T cells expressing HiBiT-tagged IRAK4, 6 hours.
T1 construct: 293Tcells expressing HiBiT-tagged IRAK4 were then added into 384-well plates
T1 sequence (Q9NWZ3 1-460): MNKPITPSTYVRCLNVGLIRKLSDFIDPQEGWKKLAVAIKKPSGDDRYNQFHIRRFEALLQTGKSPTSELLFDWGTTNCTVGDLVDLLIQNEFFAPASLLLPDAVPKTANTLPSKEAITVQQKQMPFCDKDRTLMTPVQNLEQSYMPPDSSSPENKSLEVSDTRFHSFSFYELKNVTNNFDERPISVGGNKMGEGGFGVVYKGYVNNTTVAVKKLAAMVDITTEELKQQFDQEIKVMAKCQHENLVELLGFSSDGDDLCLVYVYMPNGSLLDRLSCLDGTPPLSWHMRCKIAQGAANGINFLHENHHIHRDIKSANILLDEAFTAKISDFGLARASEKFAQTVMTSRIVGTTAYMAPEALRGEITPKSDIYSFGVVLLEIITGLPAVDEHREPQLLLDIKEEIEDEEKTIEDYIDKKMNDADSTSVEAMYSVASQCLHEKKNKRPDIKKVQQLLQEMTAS
Format: cell-based
Description: Assay 1. IRAK4 Degradation Assay, HiBiT Method
Selected compounds were tested in an IRAK4 degradation assay using the HiBiT Method.
Phenol red-free Dulbecco's modified Eagle medium (DMEM) and fetal bovine serum (FBS) were purchased from Gibco (Grand Island, NY, USA). The Nano-Glo® HiBiT Lytic Assay System was purchased from Promega (Madison, WI, USA). Cell culture flasks and 384-well microplates were acquired from VWR (Radnor, PA, USA). The 293Tcell line was engineered by knocking-in a HiBiT fusion tag into the C-terminal of the IRAK4 gene in 293T cells (Synthego, Redwood City, CA, USA).
IRAK4 degradation was measured via the quantification of luminescent signals using the Nano-Glo® HiBiT Lytic Assay kit. Test compounds were added to 384-well plates in duplicate using an 11-point half-log dilution series, with the highest dose set at […]. 293Tcells expressing HiBiT-tagged IRAK4 were then added into 384-well plates at a cell density of 10,000 cells per well. The plates were kept at 37° C. with 5% CO2 for 6 hours. Cells that were treated only with DMSO served as the negative control; wells that contained only assay media served as the background control. After the 6-hour incubation, Nano-Glo® HiBiT Lytic Assay reagents were added to the cells. Luminescence was acquired using an EnVision™ Multilabel Reader (PerkinElmer, Santa Clara, CA, USA).

| SMILES | DC50 [nM] |
| --- | --- |
| CC(C)Oc1cc2nc([C@H]3CC[C@H](CN4CCC(c5cccc6c5n(C)c(=O)n6C5CCC(=O)NC5=O)CC4)CC3)cn2cc1C(=O)Nc1cccc(C(F)F)n1 (stereo partly drawn) [Example 17, N-[6-(difluoromethyl)-2-pyridyl]-2-[4-[[4-[1-(2,6-dioxo-3-piperidyl)-3-methyl-2-oxo-benzimidazol-4-yl]-1-piperidyl]methyl]cyclohexyl]-7-isopropoxy-imidazo[1,2-a]pyridine-6-carboxamide] | 10 to 100 |
| CC(C)Oc1cc2nn([C@H]3CC[C@H](CN4CC5(C4)CN(c4ncc(C6CCC(=O)NC6=O)cc4F)C5)CC3)cc2cc1C(=O)Nc1cccn([C@H]2C[C@H]2F)c1=O (stereo partly drawn) [Example 126, 2-((1r,4S)-4-((6-(5-(2,6-dioxopiperidin-3-yl)-3-fluoropyridin-2-yl)-2,6-diazaspiro[3.3]heptan-2-yl)methyl)cyclohexyl)-N-(1-((1S,2R)-2-fluorocyclopropyl)-2-oxo-1,2-dihydropyridin-3-yl)-6-isopropoxy-2H-indazole-5-carboxamide] | < 10 |
| CC(C)Oc1cc2nc(C3CCN(C(=O)CN4CCC(n5ccc(NC6CCC(=O)NC6=O)n5)CC4)CC3)cn2cc1C(=O)Nc1cccc(C(F)F)n1 (stereo not drawn) [Example 83, N-[6-(difluoromethyl)-2-pyridyl]-2-[1-[2-[4-[3-[(2,6-dioxo-3-piperidyl)amino]pyrazol-1-yl]-1-piperidyl]acetyl]-4-piperidyl]-7-isopropoxy-imidazo[1,2-a]pyridine-6-carboxamide] | 10 to 100 |
| CC(C)Oc1cc2nn([C@H]3CC[C@H](CN4CCCC(c5ccc(OC6CCC(=O)NC6=O)cc5)C4)CC3)cc2cc1C(=O)Nc1cccn(C2CC2)c1=O (stereo partly drawn) [Example 118, N-(1-cyclopropyl-2-oxo-1,2-dihydropyridin-3-yl)-2-((1r,4r)-4-((3-(4-((2,6-dioxopiperidin-3-yl)oxy)phenyl)piperidin-1-yl)methyl)cyclohexyl)-6-isopropoxy-2H-indazole-5-carboxamide] | 10 to 100 |
| CC(C)Oc1cc2nn(C3CCN(C(=O)CN4CCC(c5ccc(C6CCC(=O)NC6=O)cc5)CC4)CC3)cc2cc1C(=O)Nc1cnn2cccnc12 (stereo not drawn) [Example 56, 2-(1-(2-(4-(4-(2,6-dioxopiperidin-3-yl)phenyl)piperidin-1-yl)acetyl)piperidin-4-yl)-6-isopropoxy-N-(pyrazolo[1,5-a]pyrimidin-3-yl)-2H-indazole-5-carboxamide] | < 10 |
| CC(C)Oc1cc2nc(C3CCN(C(=O)CC4CCN(c5ccc6c([C@H]7CCC(=O)NC7=O)nn(C)c6c5)CC4)CC3)cn2cc1C(=O)Nc1cccc(C(F)F)n1 [Example 91, (R)—N-(6-(difluoromethyl)pyridin-2-yl)-2-(1-(2-(1-(3-(2,6-dioxopiperidin-3-yl)-1-methyl-1H-indazol-6-yl)piperidin-4-yl)acetyl)piperidin-4-yl)-7-isopropoxyimidazo[1,2-a]pyridine-6-carboxamide] | 10 to 100 |
| CC(C)Oc1cc2nc(C3CCN(CC(=O)N4CC5(C4)CN(c4ccc(C6CCC(=O)NC6=O)cc4)C5)CC3)cn2cc1C(=O)Nc1cccc(C(F)F)n1 (stereo not drawn) [Example 110, N-[6-(difluoromethyl)-2-pyridyl]-2-[1-[2-[6-[4-(2,6-dioxo-3-piperidyl)phenyl]-2,6-diazaspiro[3.3]heptan-2-yl]-2-oxo-ethyl]-4-piperidyl]-7-isopropoxy-imidazo[1,2-a]pyridine-6-carboxamide] | 10 to 100 |
| CC(C)Oc1cc2nc(C3CCN(C(=O)CC4(O)CCN(c5ccc6c(C7CCC(=O)NC7=O)nn(C)c6c5)CC4)CC3)cn2cc1C(=O)Nc1cccc(C(F)F)n1 (stereo not drawn) [Example 79, N-[6-(difluoromethyl)-2-pyridyl]-2-[1-[2-[1-[3-(2,6-dioxo-3-piperidyl)-1-methyl-indazol-6-yl]-4-hydroxy-4-piperidyl]acetyl]-4-piperidyl]-7-isopropoxy-imidazo[1,2-a]pyridine-6-carboxamide] | 10 to 100 |
| CC(C)Oc1cc2nn(C3CCN(C(=O)CN4CCC(c5ccc(C6CCC(=O)NC6=O)cc5)CC4)CC3)cc2cc1C(=O)Nc1cccc(C(F)F)n1 (stereo not drawn) [Example 62, N-[6-(difluoromethyl)-2-pyridyl]-2-[1-[2-[4-[4-(2,6-dioxo-3-piperidyl)phenyl]-1-piperidyl]acetyl]-4-piperidyl]-6-isopropoxy-indazole-5-carboxamide] | < 10 |

Next, values leading:

| DC50 [nM] | SMILES |
| --- | --- |
| < 10 | CC(C)Oc1cc2nc([C@H]3CC[C@H](CN4CCC(c5ccc6c(c5)n(C)c(=O)n6C5CCC(=O)NC5=O)CC4)CC3)cn2cc1C(=O)Nc1cccn(C2CC2)c1=O (stereo partly drawn) [Example 167, N-(1-cyclopropyl-2-oxo-1,2-dihydropyridin-3-yl)-2-((1r,4r)-4-((4-(1-(2,6-dioxopiperidin-3-yl)-3-methyl-2-oxo-2,3-dihydro-1H-benzo[d]imidazol-5-yl)piperidin-1-yl)methyl)cyclohexyl)-7-isopropoxyimidazo[1,2-a]pyridine-6-carboxamide] |
| < 10 | CC(C)Oc1cc2nc([C@H]3CC[C@H](CN4CC[C@H](c5ccc6c(N7CCC(=O)NC7=O)nn(C)c6c5)[C@H](O)C4)CC3)cn2cc1C(=O)Nc1cnn2cccnc12 [Example 177, 2-((1S,4r)-4-(((3S,4R)-4-(3-(2,4-dioxotetrahydropyrimidin-1(2H)-yl)-1-methyl-1H-indazol-6-yl)-3-hydroxypiperidin-1-yl)methyl)cyclohexyl)-7-isopropoxy-N-(pyrazolo[1,5-a]pyrimidin-3-yl)imidazo[1,2-a]pyridine-6-carboxamide] |
| < 10 | CC(C)Oc1cc2nn(C3CCN(C(=O)CC4(O)CCN(c5ncc(C6CCC(=O)NC6=O)cc5F)CC4)CC3)cc2cc1C(=O)Nc1cccn([C@H]2C[C@H]2F)c1=O (stereo partly drawn) [Example 152, 2-(1-(2-(1-(5-(2,6-dioxopiperidin-3-yl)-3-fluoropyridin-2-yl)-4-hydroxypiperidin-4-yl)acetyl)piperidin-4-yl)-N-(1-((S,2R)-2-fluorocyclopropyl)-2-oxo-1,2-dihydropyridin-3-yl)-6-isopropoxy-2H-indazole-5-carboxamide] |
| < 10 | CC(C)Oc1cc2nc(C3CCN(C(=O)CC4CCN(c5ccc(C6CCC(=O)NC6=O)cn5)CC4)CC3)cn2cc1C(=O)Nc1cccn([C@H]2C[C@H]2F)c1=O (stereo partly drawn) [Example 160, 2-(1-(2-(1-(5-(2,6-dioxopiperidin-3-yl)pyridin-2-yl)piperidin-4-yl)acetyl)piperidin-4-yl)-N-(1-((1S,2R)-2-fluorocyclopropyl)-2-oxo-1,2-dihydropyridin-3-yl)-7-isopropoxyimidazo[1,2-a]pyridine-6-carboxamide] |
| < 10 | CO[C@H]1CN(C[C@H]2CC[C@H](c3cn4cc(C(=O)Nc5cccn([C@H]6C[C@H]6F)c5=O)c(OC(C)C)cc4n3)CC2)CC[C@H]1c1ccc2c(N3CCC(=O)NC3=O)nn(C)c2c1 [Example 191] |
| 10 to 100 | CC(C)Oc1cc2nc([C@H]3CC[C@H](CN4CCC(c5ncc(NC6CCC(=O)NC6=O)cc5F)CC4)CC3)cn2cc1C(=O)Nc1cccn(C2CC2)c1=O (stereo partly drawn) [Example 174, N-(1-cyclopropyl-2-oxo-1,2-dihydropyridin-3-yl)-2-((1r,4r)-4-((4-(5-((2,6-dioxopiperidin-3-yl)amino)-3-fluoropyridin-2-yl)piperidin-1-yl)methyl)cyclohexyl)-7-isopropoxyimidazo[1,2-a]pyridine-6-carboxamide] |
| < 10 | CC(C)Oc1cc2nc([C@H]3CC[C@H](CN4CCC(c5ccc6c(c5)oc(=O)n6C5CCC(=O)NC5=O)CC4)CC3)cn2cc1C(=O)Nc1cccn([C@H]2C[C@H]2F)c1=O (stereo partly drawn) [Example 175, 2-((1r,4S)-4-((4-(3-(2,6-dioxopiperidin-3-yl)-2-oxo-2,3-dihydrobenzo[d]oxazol-6-yl)piperidin-1-yl)methyl)cyclohexyl)-N-(1-((1S,2R)-2-fluorocyclopropyl)-2-oxo-1,2-dihydropyridin-3-yl)-7-isopropoxyimidazo[1,2-a]pyridine-6-carboxamide] |
| < 10 | CC(C)Oc1cc2nn([C@H]3CC[C@H](CN4CC[C@H](c5ccc(OC6CCC(=O)NC6=O)cc5)[C@@H](O)C4)CC3)cc2cc1C(=O)Nc1cccn([C@H]2C[C@H]2F)c1=O (stereo partly drawn) [Example 187] |
| < 10 | CC(C)Oc1cc2nn([C@H]3CC[C@H](CN4CC[C@@H](c5ncc(NC6CCC(=O)NC6=O)cc5F)[C@H](O)C4)CC3)cc2cc1C(=O)Nc1cccn([C@H]2C[C@H]2F)c1=O (stereo partly drawn) [Example 136, 2-((1S,4S)-4-(((3S,4S)-4-(5-((2,6-dioxopiperidin-3-yl)amino)-3-fluoropyridin-2-yl)-3-hydroxypiperidin-1-yl)methyl)cyclohexyl)-N-(1-((1S,2R)-2-fluorocyclopropyl)-2-oxo-1,2-dihydropyridin-3-yl)-6-isopropoxy-2H-indazole-5-carboxamide] |
